The results in this text go back to PMC4121215, “Cytotoxic Constituents from the Rhizomes of Curcuma zedoaria” (The Scientific World Journal, 2014).

In brackets after ≈: the same amount, converted by molar mass.

Holding throughout (format): cell-based
For data set [1], the system named is HUVEC (human umbilical vein endothelial cells). Kind of data set: cells. As to conditions: for IC50: Homo sapiens, HUVEC, isolated compounds, MTT, 72 h, normal cells. As to the method:
(§1) The human cell lines MCF-7 (breast cancer), Ca Ski (cervical cancer), and HT-29 (colon cancer) were cultured as monolayer in RPMI 1640 growth media. HUVEC (human umbilical vein endothelial cells) and PC-3 (prostate cancer) cells were cultured in DMEM. All cells were purchased from the American Tissue Culture Collection (ATCC, USA) except for human umbilical vein endothelial cells (HUVEC) which were obtained from ScienCell Research Laboratories (Carlsbad, CA). All the media were supplemented with 10% v/v foetal bovine serum (FBS), 100 μg/mL penicillin/streptomycin, and 50 μg/mL amphotericin B. The cells were cultured in a 5% CO2 incubator at 37°C.
(§2) Cell viability was investigated using 3-(4, 5-dimethylthiazol-2-yl)-2, 5-diphenyltetrazolium bromide (MTT) assay. Cells were detached from the […] tissue culture flask when it achieved 80% confluency. The detached cells were pellet by centrifugation (1,000 rpm; 5 minutes). Cells (3.0 × 10^4 cells/mL) were seeded onto a 96-well microtiter plate (Nunc). The cells were incubated at 37°C CO2 incubator for 24 h to give adherent cells. The test compounds (1–100 μg/mL) were added onto the 96-well microtiter plate containing adherent cells. The untreated cells were incubated in 10% media containing 0.5% DMSO (without addition of any test compounds/extracts). This mixture was regarded as the negative control whereas doxorubicin as the positive control. The plates were incubated for 72 h at 37°C in a 5% CO2 incubator. After 72 h, the media were removed and 100 μL of fresh medium and 20 μL of MTT (Sigma, filter sterile, 5 mg/mL) were added to each well and further incubated for 4 hours (37°C) after which the media were substituted with 150 μL DMSO. The 96-well microtiter plates were then agitated at room temperature onto an incubator shaker to dissolve the formazan crystals. The absorbance (A) of the content of the plates was measured at 540 nm using a microplate reader. The percentage of inhibition of each test sample was calculated according to the following formula: Percentage of inhibition (%) = (A control − A sample)/A control × 100%. The average of three replicates was then obtained. The IC50 for each extract was extrapolated from the graphs of the percentage inhibition versus concentration of test agents. Cytotoxicity of each test agent is expressed as IC50 value. The IC50 value is the concentration of test agents that cause 50% inhibition or cell death, averaged from the three experiments. The selectivity index (SI) was also calculated as described by using the ratio between IC50 of the extract or compounds on normal cell lines (HUVEC) and IC50 of the tested extract or compounds on cancerous cell lines. Selectivity index (SI) values equal or greater than three were considered to have a high selectivity towards cancerous cells. An SI value denotes the selectivity of the sample to the tested cell lines.

Another data set has as its system MCF-7 (breast cancer). The data set is described as follows: cells. As to conditions: for IC50: Homo sapiens, MCF7, MTT, 72 h, mean ± SD of three replicates; for IC50 / SI (selectivity index) MCF-7: isolated compounds; for SI (selectivity index) MCF-7: IC50 HUVEC / IC50 MCF-7. As to the method:
as §1, §2

In another data set the test system is PC-3 (prostate cancer). Kind of data set: MTT cytotoxicity assay, PC-3. To be noted: for IC50: Homo sapiens, MTT, 72 h, mean ± SD of three replicates; for IC50 / SI (selectivity index) PC-3: isolated compounds; for SI (selectivity index) PC-3: IC50 HUVEC / IC50 PC-3. The protocol:
as §1, §2
For orientation: Tetrazolium dyes change colour on reduction, which living cells bring about.

The test system of another data set is HT-29 (colon cancer). The data set is described as follows: MTT cytotoxicity assay, HT-29. As to conditions: for IC50: Homo sapiens, HT-29, MTT, 72 h, mean ± SD of three replicates; for IC50 / SI (selectivity index) HT-29: isolated compounds; for SI (selectivity index) HT-29: IC50 HUVEC / IC50 HT-29. As to the method:
as §1, §2

The subject of a further data set is Ca Ski (cervical cancer). The data set is described as follows: cells. The protocol: as §1, §2

For `C=C1CC[C@H]2C(C)(C)CCC[C@]2(C)[C@H]1C/C=C(/C=O)CC(OC)OC` [Compound 13, calcaratarin A], the IC50 – broadly, the midpoint of a concentration-inhibition curve – came out at 47.3 ± 4.2 µg/mL (≈ 136 µM) in data set [1], 62.5 ± 4.8 µg/mL (≈ 179 µM) in the data set with MCF-7 (breast cancer), 41.7 ± 3.4 µg/mL (≈ 120 µM) in the data set with PC-3 (prostate cancer) and 48.3 ± 5.1 µg/mL (≈ 139 µM) with HT-29 (colon cancer). In addition, the “SI (selectivity index) MCF-7” value in the data set on MCF-7 (breast cancer) came out at 0.8. The “SI (selectivity index) PC-3” value in the data set with PC-3 (prostate cancer) came to 1.1. Besides, in the data set on HT-29 (colon cancer), the “SI (selectivity index) HT-29” value was 1.0.
Take `C=C1CC(=O)C(=C(C)C)C[C@H]2[C@H]1CC[C@]2(C)O` [Compound 14, isoprocurcumenol]: it took 45.1 ± 3 µg/mL (≈ 192 µM) to reach half-maximal inhibition in data set [1] (IC50). For the same molecule, in the data set on MCF-7 (breast cancer), the IC50 came to 58.8 ± 4.2 µg/mL (≈ 251 µM) and the “SI (selectivity index) MCF-7” value came to 0.8. For the same molecule, in the data set on PC-3 (prostate cancer), half-maximal inhibition (IC50) was put at 37.4 ± 4.5 µg/mL (≈ 160 µM) and the “SI (selectivity index) PC-3” value worked out at 1.2. Also, in the data set on HT-29 (colon cancer), the IC50 was 51.6 ± 3.9 µg/mL (≈ 220 µM) and the “SI (selectivity index) HT-29” value turned out to be 0.9.
As to `CC(C)=C1C/C=C(\C)CC[C@H]2O[C@@]2(C)CC1=O` [Compound 15, germacrone-1,10-epoxide], the IC50 in data set [1] amounted to 55.5 ± 1.6 µg/mL (≈ 237 µM); in the data set on MCF-7 (breast cancer), 61.2 ± 5.8 µg/mL (≈ 261 µM); in the data set on PC-3 (prostate cancer), 53.2 ± 4.9 µg/mL (≈ 227 µM); with HT-29 (colon cancer), 72.8 ± 8.3 µg/mL (≈ 311 µM). In the data set with MCF-7 (breast cancer), the “SI (selectivity index) MCF-7” value is reported as 0.9. The “SI (selectivity index) PC-3” value in the data set on PC-3 (prostate cancer) is recorded as 1.0. The “SI (selectivity index) HT-29” value with HT-29 (colon cancer) was found to be 0.8.
In the case of `C=C(C)[C@@H]1CC[C@H](C)[C@]12CC(=C(C)C)C(=O)O2` [Compound 17, curcumanolide A], 21.7 ± 7 µg/mL (≈ 92.6 µM) corresponded to half-maximal inhibition in data set [1] (IC50). Moreover, in the data set with MCF-7 (breast cancer), it took 29.8 ± 3.1 µg/mL (≈ 127 µM) to reach half-maximal inhibition (IC50) and the “SI (selectivity index) MCF-7” value is given as 0.7. Also, in the data set on PC-3 (prostate cancer), the 50% inhibitory concentration (IC50) came to 18.8 ± 2.4 µg/mL (≈ 80.2 µM) and the “SI (selectivity index) PC-3” value was 1.2. Also, the “antiproliferative/cytotoxic activity against PC-3 (in words)” value in the data set on PC-3 (prostate cancer) (MTT assay) is recorded as “moderate inhibitory activity”. Besides, in the data set with HT-29 (colon cancer), it took 21.3 ± 3.2 µg/mL (≈ 90.9 µM) to reach half-maximal inhibition (IC50) and the “SI (selectivity index) HT-29” value was 1.0. The “antiproliferative/cytotoxic activity against HT-29 (in words)” value in the data set on HT-29 (colon cancer) (MTT assay) is given as “moderate inhibitory activity”.
Take `C=C(C)C(=O)C[C@]12OC(=O)C=C(C)[C@@H]1CC[C@@H]2C` [Compound 18, curcuzedoalide]: the IC50 in data set [1] is 45.3 ± 7.8 µg/mL (≈ 182 µM). Also, in the data set on MCF-7 (breast cancer), the IC50 amounted to 49.8 ± 3.6 µg/mL (≈ 201 µM) and the “SI (selectivity index) MCF-7” value is listed as 0.9. In addition, in the data set with PC-3 (prostate cancer), the IC50 came to 62.1 ± 8.1 µg/mL (≈ 250 µM) and the “SI (selectivity index) PC-3” value is 0.7. In the data set on HT-29 (colon cancer), the IC50 is 58.2 ± 3.5 µg/mL (≈ 234 µM) and the “SI (selectivity index) HT-29” value is recorded as 0.8.
In turn, `Cc1cc2oc(=O)c(C)c-2cc2c1CC[C@@H]2C` [Compound 19, gweicurculactone] returned an IC50 in data set [1] of 71.7 ± 6.1 µg/mL (≈ 314 µM). In the data set on MCF-7 (breast cancer), inhibition was half-maximal at 31.2 ± 3.2 µg/mL (≈ 137 µM) (IC50) and the “SI (selectivity index) MCF-7” value is reported as 2.3. Also, in the data set with PC-3 (prostate cancer), the IC50 is 38.3 ± 2.2 µg/mL (≈ 168 µM) and the “SI (selectivity index) PC-3” value amounted to 1.9. Also, in the data set on HT-29 (colon cancer), inhibition was half-maximal at 35.7 ± 5.8 µg/mL (≈ 156 µM) (IC50) and the “SI (selectivity index) HT-29” value was 2.0.
As to `COc1cccc2c1C(=O)c1c(O)c3c(c(O)c1C2=O)C[C@@](O)(C(=O)CO)C[C@@H]3O[C@H]1C[C@H](N)[C@H](O)[C@H](C)O1` [doxorubicin, reference compound], the IC50 worked out at 0.2 ± 1 µg/mL (≈ 0.368 µM) in the data set with Ca Ski (cervical cancer) (Homo sapiens, Ca-Ski, isolated compounds, MTT, 72 h, mean ± SD of three replicates); 1.4 µg/mL (≈ 2.58 µM) in data set [1]; 0.1 µg/mL (≈ 0.184 µM) with MCF-7 (breast cancer).
With Hexane, the “antiproliferative/cytotoxic activity against Ca Ski (in words)” value in the data set on Ca Ski (cervical cancer) is listed as “high inhibitory activity”. In addition, the “toxicity towards normal cells HUVEC (in words)” value in data set [1] is reported as “low toxicity”. For the same molecule, the “antiproliferative/cytotoxic activity against MCF-7 (in words)” value in the data set with MCF-7 (breast cancer) was “high inhibitory activity”.
